From US20180037568A1, “MODULATORS OF METHYL MODIFYING ENZYMES, COMPOSITIONS AND USES THEREOF” (Constellation Pharmaceuticals, Inc., priority 2015, published 2018)
Like-named read-outs stand apart in the source and are kept apart here.

Columns and labels:
[1] = molecular target: EZH2 (Homo sapiens, UniProt Q15910); test: EZH2 nuc BSA Brij 1.5 (IC50): rPRC2, biotinylated oligonucleosome substrate, 3H SAM FlashPlate; assay type: biochemical
Protocol: EZH2 Nuc BSA Brij 1.5 (IC50):
Assays were carried out by mixing rPRC2 together with biotinylated oligonucleosome substrates in the presence of the radio-labeled enzyme co-factor, S-adenosyl-L-methionine (^3H SAM) (Perkin Elmer) and monitoring the enzymatically mediated transfer of tritiated methyl groups from ^3H SAM to histone lysine residues. The amount of resulting tritiated methyl histone product was measured by first capturing the biotinylated oligonucleosomes in streptavidin (SAV) coated FlashPlates (Perkin Elmer), followed by a wash step to remove un-reacted ^3H SAM, and then counting on a TopCount NXT 384 well plate scintillation counter (Perkin Elmer). The final assay conditions for EZH2 were as follows: 50 mM Tris Buffer pH 8.5, 1 mM DTT, 69 μM Brij-35 detergent, 5.0 mM MgCl2, 0.1 mg/mL BSA, 0.2 μM ^3H SAM, 0.2 μM biotinylated oligonucleosomes, 3.6 μM H3K27me3 peptide and 2 nM EZH2.
Compound IC50 Measurements were Obtained as Follows:
Compounds were first dissolved in 100% DMSO as 10 mM stock solutions. Ten point dose response curves were generated by dispensing varying amounts of the 10 mM compound solution in 10 wells of the 384 well plate (Echo; Labcyte), pure DMSO was then used to backfill the wells to insure all wells have the same amount of DMSO. A 12.5 μL volume of the HMT enzyme, H3K27me3 peptide and oligonucleosome substrate in assay buffer was added to each well of the assay plate using a Multidrop Combi (ThermoFisher). Compounds were pre-incubated with the enzyme for 20 min, followed by initiation of the methyltransferase reaction by addition of 12.5 μL of ^3H SAM in assay buffer (final volume=25 μL). The final concentrations of compounds ranged from a top default concentration of 80 μM down to 0.16 μM in ten 2-fold dilution steps. Reactions were carried out for 60 minutes and quenched with 20 μL per well of 1.96 mM SAH, 50 mM Tris pH 8.5, 200 mM EDTA. Stopped reactions were transferred to SAV coated Flashplates (Perkin Elmer), incubated for 120 min, washed with a plate washer, and then read on the TopCount NXT (1.0 min/well) to measure the amount of methyl histone product formed during the reaction. The amount of methyl histone product was compared with the amount of product formed in the 0% and 100% inhibition control wells allowing the calculation of % Inhibition in the presence of the individual compounds at various concentrations. IC50's were computed using a 4 parameter fit non-linear curve fitting software package (XLFIT, part of the database package, ActivityBase (IDBS)) where the four parameters were IC50, Hill slope, pre-transitional baseline (0% INH), and post-transitional baseline (100% INH); with the latter two parameters being fixed to zero and 100%, respectively, by default.

[2] = molecular target: T1, PRC2 containing wt EZH2 (Homo sapiens, UniProt Q15910); test: EZH2 pep BSA Brij 4.0 LowE (IC50): 3H-SAM incorporation into biotinylated H3 peptide; assay type: biochemical; settings: 20 pM PRC2 wt EZH2, 0.9 μM 3H-SAM, biotinylated H3 peptide substrate, 2 μM H3K27me3 activating peptide
T1 construct: made in house
T1 sequence (Q15910 whole entry): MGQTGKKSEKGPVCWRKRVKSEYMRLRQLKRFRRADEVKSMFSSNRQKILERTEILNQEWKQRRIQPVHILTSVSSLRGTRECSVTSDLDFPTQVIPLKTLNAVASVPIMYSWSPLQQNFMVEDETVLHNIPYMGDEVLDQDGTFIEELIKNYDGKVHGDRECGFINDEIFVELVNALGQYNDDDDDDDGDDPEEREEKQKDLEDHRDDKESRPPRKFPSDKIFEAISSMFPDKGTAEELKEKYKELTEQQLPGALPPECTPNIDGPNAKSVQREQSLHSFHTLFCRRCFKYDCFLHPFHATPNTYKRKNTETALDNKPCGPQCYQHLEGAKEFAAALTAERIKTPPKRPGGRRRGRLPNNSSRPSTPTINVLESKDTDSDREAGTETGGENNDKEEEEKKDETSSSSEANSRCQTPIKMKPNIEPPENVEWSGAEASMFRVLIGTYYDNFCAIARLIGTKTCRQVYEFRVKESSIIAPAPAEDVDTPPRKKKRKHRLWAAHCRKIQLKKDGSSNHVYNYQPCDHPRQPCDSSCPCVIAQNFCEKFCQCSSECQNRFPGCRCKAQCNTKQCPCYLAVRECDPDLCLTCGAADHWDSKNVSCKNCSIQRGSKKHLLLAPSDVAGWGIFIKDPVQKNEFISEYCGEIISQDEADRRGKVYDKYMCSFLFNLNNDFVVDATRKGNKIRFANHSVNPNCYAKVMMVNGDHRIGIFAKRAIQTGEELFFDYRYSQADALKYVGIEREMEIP
T1 sequence (O75530 whole entry partner): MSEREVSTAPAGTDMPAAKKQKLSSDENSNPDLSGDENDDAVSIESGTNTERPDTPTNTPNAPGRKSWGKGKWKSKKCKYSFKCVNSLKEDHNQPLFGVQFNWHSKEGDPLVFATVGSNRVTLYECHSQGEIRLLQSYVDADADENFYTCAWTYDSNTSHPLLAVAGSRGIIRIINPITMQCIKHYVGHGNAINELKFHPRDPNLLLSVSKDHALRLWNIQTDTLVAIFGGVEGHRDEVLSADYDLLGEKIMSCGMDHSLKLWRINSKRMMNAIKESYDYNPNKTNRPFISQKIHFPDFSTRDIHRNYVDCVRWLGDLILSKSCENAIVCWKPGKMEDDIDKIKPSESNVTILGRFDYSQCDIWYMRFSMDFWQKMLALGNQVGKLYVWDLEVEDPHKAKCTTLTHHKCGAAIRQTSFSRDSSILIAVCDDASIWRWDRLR
T1 sequence (Q15022 whole entry partner): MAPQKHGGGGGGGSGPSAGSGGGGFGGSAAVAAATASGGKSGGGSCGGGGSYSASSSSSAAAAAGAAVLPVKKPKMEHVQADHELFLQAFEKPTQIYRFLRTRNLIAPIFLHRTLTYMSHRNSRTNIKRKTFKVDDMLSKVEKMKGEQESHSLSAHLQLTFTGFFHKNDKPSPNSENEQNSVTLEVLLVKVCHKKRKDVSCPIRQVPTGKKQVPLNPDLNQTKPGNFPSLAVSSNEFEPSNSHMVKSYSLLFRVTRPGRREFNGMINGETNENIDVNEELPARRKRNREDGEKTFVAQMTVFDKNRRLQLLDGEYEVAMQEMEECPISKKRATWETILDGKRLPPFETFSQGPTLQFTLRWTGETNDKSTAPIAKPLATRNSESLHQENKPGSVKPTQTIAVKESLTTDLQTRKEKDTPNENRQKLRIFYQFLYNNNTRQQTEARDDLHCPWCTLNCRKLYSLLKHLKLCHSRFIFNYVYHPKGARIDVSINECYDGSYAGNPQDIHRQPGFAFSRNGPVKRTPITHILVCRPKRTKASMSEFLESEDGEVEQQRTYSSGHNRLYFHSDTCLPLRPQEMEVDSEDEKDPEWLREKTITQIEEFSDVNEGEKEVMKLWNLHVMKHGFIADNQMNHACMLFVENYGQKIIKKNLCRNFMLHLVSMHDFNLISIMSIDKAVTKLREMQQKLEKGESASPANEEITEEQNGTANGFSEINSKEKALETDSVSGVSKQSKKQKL
T1 sequence (Q09028 whole entry partner): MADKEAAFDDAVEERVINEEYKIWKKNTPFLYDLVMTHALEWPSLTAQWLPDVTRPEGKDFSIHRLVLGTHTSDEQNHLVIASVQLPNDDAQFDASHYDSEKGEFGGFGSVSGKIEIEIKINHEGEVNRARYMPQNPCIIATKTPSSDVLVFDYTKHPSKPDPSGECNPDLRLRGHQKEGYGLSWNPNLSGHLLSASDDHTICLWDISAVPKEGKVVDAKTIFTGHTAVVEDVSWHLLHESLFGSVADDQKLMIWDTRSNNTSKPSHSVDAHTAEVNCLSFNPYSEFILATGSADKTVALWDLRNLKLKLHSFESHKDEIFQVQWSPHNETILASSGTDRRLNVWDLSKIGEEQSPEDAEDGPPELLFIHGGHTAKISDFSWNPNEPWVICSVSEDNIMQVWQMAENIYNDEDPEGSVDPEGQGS
T1 sequence (Q6ZN18 whole entry partner): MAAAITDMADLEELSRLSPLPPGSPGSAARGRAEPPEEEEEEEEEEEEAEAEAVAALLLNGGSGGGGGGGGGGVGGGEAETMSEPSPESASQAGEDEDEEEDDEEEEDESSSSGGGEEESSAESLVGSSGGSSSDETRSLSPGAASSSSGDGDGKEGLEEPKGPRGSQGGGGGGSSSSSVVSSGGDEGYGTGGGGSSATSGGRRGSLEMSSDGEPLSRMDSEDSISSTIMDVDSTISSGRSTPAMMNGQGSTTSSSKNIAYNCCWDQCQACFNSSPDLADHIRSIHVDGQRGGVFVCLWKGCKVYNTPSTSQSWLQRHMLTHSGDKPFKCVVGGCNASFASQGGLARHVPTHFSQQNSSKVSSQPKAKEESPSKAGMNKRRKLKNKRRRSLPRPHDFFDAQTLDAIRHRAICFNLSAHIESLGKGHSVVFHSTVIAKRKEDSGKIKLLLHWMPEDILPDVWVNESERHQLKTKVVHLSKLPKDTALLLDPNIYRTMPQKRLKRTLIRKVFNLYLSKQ
Summary of the method: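 PRC2 (wt EZH2, 20 pM) pre-incubated 120 min with compound, 0.9 μM 3H-SAM and 2 μM H3K27me3 activating peptide in pH 8.5 Tris/DTT/Brij-35/0.1% BSA, 0.8% DMSO. Biotinylated H3K27me1 peptide added (2 μM stock), 5 h at room temperature, EDTA/SAH quench, streptavidin Flashplate capture. IC50 from four-parameter fit versus full-activity and no-enzyme controls.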

[3] = system: H3K27me3 mark; test: H3K27me3 Alpha Hela Assay (AlphaLISA); assay type: cell-based; settings: Hela cells, read-out: EZH2 Cell H3K27me3 Alpha HeLa (EC50 K27me3)
Summary of the method: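 HeLa cells at 1,000/well were treated with ten 3-fold compound doses for 72 h at 37 °C. After lysis and histone extraction, H3K27me3 was detected by AlphaLISA with anti-K27me3 acceptor beads, biotinylated anti-H3 (C-ter) antibody (3 nM final) and streptavidin donor beads (20 μg/mL final). Signals were normalized to DMSO and curve-fitted for EC50.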

[4] = EZH2 nuc BSA Brij 1.5 (IC50), 2 nM EZH2, 0.2 μM biotinylated oligonucleosomes, 0.2 μM 3H SAM, 3.6 μM H3K27me3 peptide
[5] = EZH2 pep BSA Brij 4.0 LowE (IC50)

EZH2, sequence (Q15910 whole entry): as the sequence (Q15910 whole entry) above
EZH2, sequence (O75530 whole entry partner): as the sequence (O75530 whole entry partner) above
EZH2, sequence (Q15022 whole entry partner): as the sequence (Q15022 whole entry partner) above

Structure (SMILES): COc1cc(C)[nH]c(=O)c1CNC(=O)c1c(C)n(C(C)C2CCNC(C(F)(F)F)C2)c2ccccc12 (single isomer, unassigned) [Compound 14, N-((4-methoxy-6-methyl-2-oxo-1,2-dihydropyridin-3-yl)methyl)-2-methyl-1-(1-(2-(trifluoromethyl)piperidin-4-yl)ethyl)-1H-indole-3-carboxamide]
- IC50 [1, 4]: < 100 nM
- IC50 [2, 5]: < 100 nM
- EC50 ([3]; 72 hrs): < 400 nM

Structure (SMILES): COc1cc(C)[nH]c(=O)c1CNC(=O)c1c(C)n(C(C)C2CCN(CC(F)(F)F)C(C)C2)c2ccccc12 (single isomer, unassigned) [Compound 43, N-((4-methoxy-6-methyl-2-oxo-1,2-dihydropyridin-3-yl)methyl)-2-methyl-1-(1-(2-methyl-1-(2,2,2-trifluoroethyl)piperidin-4-yl)ethyl)-1H-indole-3-carboxamide]
- IC50 ([1]; read-out: EZH2 nuc BSA Brij 1.5 (IC50); 2 nM EZH2, 0.2 μM biotinylated oligonucleosomes, 0.2 μM 3H SAM, 3.6 μM H3K27me3 peptide): < 100 nM
- IC50 [2, 5]: < 100 nM
- EC50 ([3]; 72 hrs): < 400 nM

Structure (SMILES): COc1cc(C)[nH]c(=O)c1CNC(=O)c1c(C)n(C(C)C2CCN(C)C(c3ccc(F)cc3)C2)c2ccccc12 (stereo not drawn) [Compound 33, 1-(1-(2-(4-fluorophenyl)-1-methylpiperidin-4-yl)ethyl)-N-((4-methoxy-6-methyl-2-oxo-1,2-dihydropyridin-3-yl)methyl)-2-methyl-1H-indole-3-carboxamide]
- IC50 ([1]; 2 nM EZH2, 0.2 μM biotinylated oligonucleosomes, 0.2 μM 3H SAM, 3.6 μM H3K27me3 peptide; read-out: EZH2 nuc BSA Brij 1.5 (IC50)): < 100 nM
- IC50 ([2]; read-out: EZH2 pep BSA Brij 4.0 LowE (IC50)): < 100 nM
- EC50 ([3]; Homo sapiens, HeLa, 72 h): 400 to 2000 nM

Structure (SMILES): COc1cc(C)[nH]c(=O)c1CNC(=O)c1c(C)n(C(C)C2CCN(C3COC3)CC2C(F)(F)F)c2ccccc12 (stereo not drawn) [Compound 8, N-((4-methoxy-6-methyl-2-oxo-1,2-dihydropyridin-3-yl)methyl)-2-methyl-1-(1-(1-(oxetan-3-yl)-3-(trifluoromethyl)piperidin-4-yl)ethyl)-1H-indole-3-carboxamide]
- IC50 [1, 4]: < 100 nM
- IC50 [2, 5]: < 100 nM
- EC50 ([3]; Homo sapiens, HeLa, 72 h): > 2000 nM
